Active and inactive are the calls of the source.
Columns and labels:
Cytochrome P450 2D6 = Cytochrome P450 2D6 (Homo sapiens, UniProt P10635);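 further: CYP2D6 member of a cytochrome P450 panel assay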
Cytochrome P450 2C19 = Cytochrome P450 2C19 (Homo sapiens, UniProt P33261); test: Cytochrome panel assay with activity outcomes. Panel member name: p450-cyp2c19 Compounds with AC50 equal or less than 10 uM are considered active; assay type: functional; settings: read-out: AC50
Cytochrome P450 2C9 = Cytochrome P450 2C9 (Homo sapiens, UniProt P11712)
HeLa = test: HeLa cell cytotoxicity, dose response, cytotoxicity control for MITF activator project, CellTiter-Glo luminescence, cherry-pick samples (AID 540259); assay type: functional, cell-based; settings: Homo sapiens
[1] = molecular target: T1, Intestinal-type alkaline phosphatase (Mus musculus, UniProt P24822); test: PubChem AID 488785; assay type: functional
[2] = molecular target: T2, Zinc finger protein mex-5 (Caenorhabditis elegans, UniProt Q9XUB2); test: MEX-5/TCR-2 RNA interaction inhibitors, dose response, biochemical, C. elegans, fluorescence polarization (AID 1960)
T2 sequence (Q9XUB2 whole entry): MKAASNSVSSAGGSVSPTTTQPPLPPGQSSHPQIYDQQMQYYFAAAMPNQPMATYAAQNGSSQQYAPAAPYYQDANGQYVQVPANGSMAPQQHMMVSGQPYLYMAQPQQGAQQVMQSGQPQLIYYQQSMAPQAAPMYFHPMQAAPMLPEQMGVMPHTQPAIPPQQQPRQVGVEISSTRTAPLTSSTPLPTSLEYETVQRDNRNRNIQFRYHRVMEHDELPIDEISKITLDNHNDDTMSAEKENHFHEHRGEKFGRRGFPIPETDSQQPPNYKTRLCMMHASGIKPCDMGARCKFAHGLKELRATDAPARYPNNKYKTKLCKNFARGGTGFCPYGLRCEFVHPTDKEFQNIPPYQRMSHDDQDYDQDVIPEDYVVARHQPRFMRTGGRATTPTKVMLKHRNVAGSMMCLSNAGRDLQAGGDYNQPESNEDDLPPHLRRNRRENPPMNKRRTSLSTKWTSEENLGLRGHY

[3] = molecular target: T1, Intestinal-type alkaline phosphatase; test: PubChem AID 488874; assay type: functional
[4] = molecular target: T3, Intestinal-type alkaline phosphatase (Homo sapiens, UniProt P09923); test: Dose Response confirmation of uHTS hits from a small molecule inhibitors of human intestinal alkaline phosphatase via a luminescent assay. [Related pubchem assays (depositor defined):AID2544, AID2574]; assay type: functional
[5] = molecular target: T4, RNA-binding protein pos-1 (Caenorhabditis elegans, UniProt G5EF15); test: inhibitors of POS-1/mex-3 RNA binding, dose response, biochemical, fluorescence polarization (AID 1964);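 further: purified POS-1 fused to maltose binding protein made in E. coli; potency of compounds blocking POS-1 binding to fluorescent RNA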
T4 sequence (G5EF15 whole entry): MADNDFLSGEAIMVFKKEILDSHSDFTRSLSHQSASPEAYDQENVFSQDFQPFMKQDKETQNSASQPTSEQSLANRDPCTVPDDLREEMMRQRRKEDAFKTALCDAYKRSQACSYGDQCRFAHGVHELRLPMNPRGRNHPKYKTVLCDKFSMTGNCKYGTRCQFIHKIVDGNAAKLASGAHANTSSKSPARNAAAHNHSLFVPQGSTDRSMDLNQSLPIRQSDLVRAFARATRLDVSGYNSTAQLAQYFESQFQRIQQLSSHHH

[6] = molecular target: Alkaline phosphatase, placental type (Homo sapiens, UniProt P05187); test: PLAP enzyme inhibitors, confirmation, biochemical, luminescence (AID 1512); assay type: functional
[7] = molecular target: T3, Intestinal-type alkaline phosphatase; test: human IAP inhibitors, dose response, biochemical, luminescent, uHTS hits, set 2 (AID 488793); assay type: functional
[8] = molecular target: T5, Alkaline phosphatase, tissue-nonspecific isozyme (Homo sapiens, UniProt P05186); test: human TNAP enzyme inhibitors, SAR follow-up, biochemical, luminescent, dose response (AID 1056)
T5 sequence (P05186 whole entry): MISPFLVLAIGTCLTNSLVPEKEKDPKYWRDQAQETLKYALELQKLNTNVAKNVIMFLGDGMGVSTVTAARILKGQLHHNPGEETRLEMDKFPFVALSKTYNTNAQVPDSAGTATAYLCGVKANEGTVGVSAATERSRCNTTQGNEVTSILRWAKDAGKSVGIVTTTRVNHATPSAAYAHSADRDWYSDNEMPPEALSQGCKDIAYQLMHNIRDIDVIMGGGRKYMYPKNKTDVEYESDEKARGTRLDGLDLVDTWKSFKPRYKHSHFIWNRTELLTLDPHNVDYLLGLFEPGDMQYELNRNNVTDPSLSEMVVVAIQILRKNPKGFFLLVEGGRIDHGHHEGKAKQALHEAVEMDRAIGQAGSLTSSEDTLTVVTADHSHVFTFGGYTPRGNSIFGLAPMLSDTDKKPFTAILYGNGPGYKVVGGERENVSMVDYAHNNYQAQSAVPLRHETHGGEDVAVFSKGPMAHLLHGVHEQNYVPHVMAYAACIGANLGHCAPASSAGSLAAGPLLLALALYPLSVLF

[9] = molecular target: T3, Intestinal-type alkaline phosphatase; test: activation of human intestinal alkaline phosphatase – biochemical, dose response (AID 488873); assay type: functional
[10] = molecular target: T5, Alkaline phosphatase, tissue-nonspecific isozyme; test: TNAP enzyme activators, dose response, selectivity assay for human IAP activator project, biochemical, TNAP isozyme, human IAP uHTS hits (AID 488886); assay type: functional;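 further: potency of compounds raising TNAP activity as a selectivity check on IAP activators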
[11] = molecular target: T5, Alkaline phosphatase, tissue-nonspecific isozyme; test: TNAP enzyme inhibition by screening hits, dose response, selectivity assay for mouse IAP inhibitor project, biochemical, human TNAP, uHTS hits (AID 488906); assay type: functional

T3 sequence (P09923 whole entry, the tested form may be a part): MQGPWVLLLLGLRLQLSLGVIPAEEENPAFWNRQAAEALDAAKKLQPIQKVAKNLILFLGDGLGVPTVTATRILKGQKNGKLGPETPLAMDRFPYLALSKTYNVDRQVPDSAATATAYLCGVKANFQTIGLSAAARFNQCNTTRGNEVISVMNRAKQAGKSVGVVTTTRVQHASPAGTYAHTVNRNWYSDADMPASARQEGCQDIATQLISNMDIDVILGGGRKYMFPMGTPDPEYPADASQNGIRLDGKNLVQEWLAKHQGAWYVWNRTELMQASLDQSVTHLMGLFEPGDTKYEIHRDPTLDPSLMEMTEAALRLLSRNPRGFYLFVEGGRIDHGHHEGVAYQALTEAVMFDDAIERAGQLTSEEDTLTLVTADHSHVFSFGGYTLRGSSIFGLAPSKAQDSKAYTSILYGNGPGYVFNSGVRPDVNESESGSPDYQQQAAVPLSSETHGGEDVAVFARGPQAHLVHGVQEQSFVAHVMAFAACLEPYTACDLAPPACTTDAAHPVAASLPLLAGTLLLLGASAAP
T1 sequence (P24822 whole entry): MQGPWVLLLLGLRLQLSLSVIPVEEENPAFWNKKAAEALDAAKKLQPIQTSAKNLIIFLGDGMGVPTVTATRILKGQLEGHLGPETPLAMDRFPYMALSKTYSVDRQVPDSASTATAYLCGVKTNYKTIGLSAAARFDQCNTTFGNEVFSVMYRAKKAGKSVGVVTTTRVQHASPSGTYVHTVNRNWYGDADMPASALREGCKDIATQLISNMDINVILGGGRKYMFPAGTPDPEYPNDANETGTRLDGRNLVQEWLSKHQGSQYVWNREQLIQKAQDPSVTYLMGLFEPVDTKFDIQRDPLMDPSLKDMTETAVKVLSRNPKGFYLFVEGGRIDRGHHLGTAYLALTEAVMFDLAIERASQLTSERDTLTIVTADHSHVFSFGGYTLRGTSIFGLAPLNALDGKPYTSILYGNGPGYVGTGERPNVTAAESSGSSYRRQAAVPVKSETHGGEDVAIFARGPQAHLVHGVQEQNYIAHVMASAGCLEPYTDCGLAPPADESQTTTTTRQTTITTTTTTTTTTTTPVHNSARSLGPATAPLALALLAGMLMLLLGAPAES
Chain of Alkaline phosphatase, placental type (P05187 whole entry): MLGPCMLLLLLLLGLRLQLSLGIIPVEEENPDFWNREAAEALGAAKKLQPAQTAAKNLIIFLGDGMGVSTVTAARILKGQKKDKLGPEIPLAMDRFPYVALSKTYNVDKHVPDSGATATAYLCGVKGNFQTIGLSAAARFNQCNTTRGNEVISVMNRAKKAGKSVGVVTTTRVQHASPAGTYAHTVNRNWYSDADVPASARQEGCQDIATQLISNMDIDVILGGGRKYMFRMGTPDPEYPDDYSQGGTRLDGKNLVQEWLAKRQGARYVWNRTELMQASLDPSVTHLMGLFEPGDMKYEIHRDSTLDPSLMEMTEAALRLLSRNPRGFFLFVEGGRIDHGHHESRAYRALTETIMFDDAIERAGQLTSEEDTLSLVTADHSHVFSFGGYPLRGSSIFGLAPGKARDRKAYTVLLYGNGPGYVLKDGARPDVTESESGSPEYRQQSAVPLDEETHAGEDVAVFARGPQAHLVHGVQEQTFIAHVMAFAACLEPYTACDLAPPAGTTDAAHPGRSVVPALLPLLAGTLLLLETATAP
Chain of Cytochrome P450 2C19 (P33261 whole entry): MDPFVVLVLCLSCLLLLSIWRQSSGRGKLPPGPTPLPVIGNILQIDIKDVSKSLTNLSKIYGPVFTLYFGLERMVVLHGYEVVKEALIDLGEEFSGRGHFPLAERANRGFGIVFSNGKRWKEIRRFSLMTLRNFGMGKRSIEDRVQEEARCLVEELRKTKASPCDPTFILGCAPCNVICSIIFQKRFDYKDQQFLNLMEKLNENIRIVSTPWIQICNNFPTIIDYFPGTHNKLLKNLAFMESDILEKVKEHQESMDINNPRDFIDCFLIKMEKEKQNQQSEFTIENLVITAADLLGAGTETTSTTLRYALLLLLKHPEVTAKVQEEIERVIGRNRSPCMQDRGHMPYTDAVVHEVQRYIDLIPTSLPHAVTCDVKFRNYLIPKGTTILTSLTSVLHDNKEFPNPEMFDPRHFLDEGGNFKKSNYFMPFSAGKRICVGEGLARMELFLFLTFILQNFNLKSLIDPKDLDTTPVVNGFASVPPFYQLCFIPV
Chain of Cytochrome P450 2D6 (P10635 whole entry): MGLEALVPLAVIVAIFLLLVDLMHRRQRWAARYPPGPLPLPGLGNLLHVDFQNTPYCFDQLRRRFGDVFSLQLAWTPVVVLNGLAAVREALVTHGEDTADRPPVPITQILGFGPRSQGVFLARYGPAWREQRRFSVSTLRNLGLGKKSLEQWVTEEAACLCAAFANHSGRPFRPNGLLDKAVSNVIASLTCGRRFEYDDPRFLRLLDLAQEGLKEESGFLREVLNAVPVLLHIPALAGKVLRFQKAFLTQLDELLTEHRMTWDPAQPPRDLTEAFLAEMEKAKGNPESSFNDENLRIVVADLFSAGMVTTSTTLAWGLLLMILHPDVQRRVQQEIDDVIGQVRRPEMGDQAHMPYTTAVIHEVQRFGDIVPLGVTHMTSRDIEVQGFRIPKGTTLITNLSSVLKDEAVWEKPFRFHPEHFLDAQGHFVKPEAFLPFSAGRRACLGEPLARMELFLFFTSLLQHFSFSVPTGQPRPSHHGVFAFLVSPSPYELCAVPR
Chain of Cytochrome P450 2C9 (P11712 whole entry): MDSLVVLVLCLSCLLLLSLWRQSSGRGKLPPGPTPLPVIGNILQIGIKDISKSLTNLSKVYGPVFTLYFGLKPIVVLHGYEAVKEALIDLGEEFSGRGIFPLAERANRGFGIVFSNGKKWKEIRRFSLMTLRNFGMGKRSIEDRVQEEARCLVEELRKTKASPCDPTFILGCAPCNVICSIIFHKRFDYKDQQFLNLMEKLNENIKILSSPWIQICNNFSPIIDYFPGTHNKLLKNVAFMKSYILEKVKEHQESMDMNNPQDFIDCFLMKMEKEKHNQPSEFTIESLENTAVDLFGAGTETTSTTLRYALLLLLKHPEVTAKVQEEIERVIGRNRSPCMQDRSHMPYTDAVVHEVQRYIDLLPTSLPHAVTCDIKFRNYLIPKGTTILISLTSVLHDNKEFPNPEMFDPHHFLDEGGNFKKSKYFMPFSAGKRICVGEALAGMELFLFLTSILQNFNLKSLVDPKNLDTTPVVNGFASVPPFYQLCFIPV

With `CCCOc1ccc(/C=C/C(=O)Nc2ccc([N+](=O)[O-])cc2C)cc1` the AC50 (Cytochrome P450 2D6) was “inconclusive”, the AC50 (Cytochrome P450 2C19) was 0.631 µM (inconclusive) and the AC50 (Cytochrome P450 2C9) was 1.41 µM (inconclusive).

`c1ccc(Cc2cc(-c3ccccc3)on2)cc1` was tested, and the AC50 (HeLa) was 253 µM (active).

`CNc1nnc(-c2cc3ccccc3oc2=O)s1` was tested, and the IC50 [1] was 1.53 µM (active), the EC50 [2] was > 300 µM (not active) and the IC50 [3] was 5.83 µM (active). The IC50 [4] was 1.76 µM (active), the EC50 [5] was > 300 µM (not active) and the IC50 [6] was 5.81 µM (active). For the same compound, the IC50 [7] was 1.29 µM (active), the IC50 [8] was > 100 µM (inactive) and the EC50 [9] was > 100 µM (inactive). For the same compound, the EC50 [10] was > 100 µM (inactive) and the IC50 [11] was 25.8 µM (active).

Reference: ChEMBL document CHEMBL1201862, “PubChem BioAssay data set” (2004)
